These results are taken from the kinase profiling compilation of Christmann-Franck et al. (2016).

Assay in all cases: KINOMEscan competition binding
Settings in all cases: compound 10.0 µM

For experiment [1], the target named is CDK17 (human) (UniProt Q00537).
Experiment [2] deals with ROCK2 (human) (UniProt O75116).
In experiment [3] the target is NTRK2 (human) (UniProt Q16620).
The subject of experiment [4] is RET (human), P07949 [V804L].
Experiment [5] addresses MYLK2 (human) (UniProt Q9H1R3).
The target in experiment [6] is STK35 (human) (UniProt Q8TDR2).
The target in experiment [7] is EPHA7 (human) (UniProt Q15375).
Experiment [8] addresses NEK1 (human) (UniProt Q96PY6).
Experiment [9] has as its target FES (human) (UniProt P07332).
Experiment [10] deals with CDK5 (human) (UniProt Q00535).
Sequence of CDK5 (human) (Q00535 whole entry, looked up): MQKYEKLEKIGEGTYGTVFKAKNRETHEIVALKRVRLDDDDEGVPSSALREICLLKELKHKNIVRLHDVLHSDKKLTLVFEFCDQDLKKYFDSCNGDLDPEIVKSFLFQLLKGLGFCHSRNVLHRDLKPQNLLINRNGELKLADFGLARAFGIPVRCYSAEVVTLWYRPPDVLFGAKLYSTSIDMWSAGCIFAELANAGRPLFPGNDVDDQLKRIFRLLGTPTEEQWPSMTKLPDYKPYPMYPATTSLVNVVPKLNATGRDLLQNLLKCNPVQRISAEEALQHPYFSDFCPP
Experiment [11] concerns the target NEK5 (human) (UniProt Q6P3R8).
The target of experiment [12] is NUAK1 (human) (UniProt O60285).
Experiment [13] deals with MAP3K9 (human) (UniProt P80192).
In experiment [14] the target is MET (human) (UniProt P08581).
Experiment [15] addresses INSR (human) (UniProt P06213).
For experiment [16], the target named is STK10 (human) (UniProt O94804).
Experiment [17] has as its target MAPKAPK5 (human) (UniProt Q8IW41).
For experiment [18], the target named is IKBKE (human) (UniProt Q14164).
Experiment [19] has as its target TSSK1B (human) (UniProt Q9BXA7).
Experiment [20] concerns the target RPS6KA3 KD1 (human) (UniProt P51812).
The target in experiment [21] is TYK2 JH1 catalytic (human) (UniProt P29597).
Experiment [22] addresses PRKCH (human) (UniProt P24723).
The subject of experiment [23] is EGFR (human), P00533 [G719C; 746-750 del].
The target of experiment [24] is NLK (human) (UniProt Q9UBE8).
Sequence of NLK (human) (Q9UBE8 whole entry, looked up): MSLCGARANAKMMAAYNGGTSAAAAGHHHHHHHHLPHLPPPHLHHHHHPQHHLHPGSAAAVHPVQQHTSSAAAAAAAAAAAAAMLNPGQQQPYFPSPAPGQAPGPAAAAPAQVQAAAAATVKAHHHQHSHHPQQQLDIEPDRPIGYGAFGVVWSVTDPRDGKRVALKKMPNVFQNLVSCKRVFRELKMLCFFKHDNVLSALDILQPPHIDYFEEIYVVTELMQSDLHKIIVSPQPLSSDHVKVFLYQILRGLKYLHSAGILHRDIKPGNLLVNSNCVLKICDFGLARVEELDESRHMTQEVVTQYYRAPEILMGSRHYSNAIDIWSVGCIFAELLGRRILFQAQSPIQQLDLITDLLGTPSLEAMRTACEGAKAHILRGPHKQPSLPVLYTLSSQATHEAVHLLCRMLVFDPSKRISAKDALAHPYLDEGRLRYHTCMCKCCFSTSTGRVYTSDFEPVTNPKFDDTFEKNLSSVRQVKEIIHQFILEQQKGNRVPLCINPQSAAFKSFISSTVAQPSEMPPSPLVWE
Experiment [25] deals with ABL1 (human), P00519 [M351T].
Experiment [26] deals with ACVRL1 (human) (UniProt P37023).
For experiment [27], the target named is CDK18 (human) (UniProt Q07002).
The target of experiment [28] is NUAK2 (human) (UniProt Q9H093).
Experiment [29] has as its target RPS6KA6 KD1 (human) (UniProt Q9UK32).
The target in experiment [30] is PTK2 (human) (UniProt Q05397).
Experiment [31] has as its target PLK3 (human) (UniProt Q9H4B4).
Experiment [32] has as its target TLK2 (human) (UniProt Q86UE8).
Experiment [33] addresses PRKG1 (human) (UniProt Q13976).
The subject of experiment [34] is EGFR (human), P00533 [752-759 del].
Experiment [35] has as its target MARK3 (human) (UniProt P27448).
In experiment [36] the target is SIK2 (human) (UniProt Q9H0K1).
The target of experiment [37] is DDR1 (human) (UniProt Q08345).
Experiment [38] deals with EPHB4 (human) (UniProt P54760).
Experiment [39] concerns the target MAPK10 (human) (UniProt P53779).
Experiment [40] concerns the target CAMK2B (human) (UniProt Q13554).
The target in experiment [41] is BRSK1 (human) (UniProt Q8TDC3).
Sequence of BRSK1 (human) (Q8TDC3 whole entry, looked up): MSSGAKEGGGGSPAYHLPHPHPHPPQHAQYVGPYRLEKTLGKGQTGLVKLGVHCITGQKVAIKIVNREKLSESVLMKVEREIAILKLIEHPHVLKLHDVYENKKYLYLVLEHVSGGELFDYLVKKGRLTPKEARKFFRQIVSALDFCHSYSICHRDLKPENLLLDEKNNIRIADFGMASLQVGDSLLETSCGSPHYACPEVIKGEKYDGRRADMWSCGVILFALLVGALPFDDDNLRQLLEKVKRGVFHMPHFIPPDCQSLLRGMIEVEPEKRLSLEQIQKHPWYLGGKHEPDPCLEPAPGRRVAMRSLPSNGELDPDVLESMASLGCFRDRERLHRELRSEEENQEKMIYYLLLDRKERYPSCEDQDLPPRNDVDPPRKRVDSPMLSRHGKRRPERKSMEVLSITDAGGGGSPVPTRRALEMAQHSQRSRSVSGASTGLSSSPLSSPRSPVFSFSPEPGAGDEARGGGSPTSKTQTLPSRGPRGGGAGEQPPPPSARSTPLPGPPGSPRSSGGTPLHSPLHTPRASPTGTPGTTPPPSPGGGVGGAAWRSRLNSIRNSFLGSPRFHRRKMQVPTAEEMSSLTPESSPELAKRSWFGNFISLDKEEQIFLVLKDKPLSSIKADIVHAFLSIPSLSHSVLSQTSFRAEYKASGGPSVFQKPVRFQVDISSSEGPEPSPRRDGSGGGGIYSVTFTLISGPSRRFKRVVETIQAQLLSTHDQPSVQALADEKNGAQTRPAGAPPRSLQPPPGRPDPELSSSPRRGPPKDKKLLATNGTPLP
Experiment [42] addresses CDKL2 (human) (UniProt Q92772).

Sequence of MAPK10 (human) (P53779 whole entry, looked up): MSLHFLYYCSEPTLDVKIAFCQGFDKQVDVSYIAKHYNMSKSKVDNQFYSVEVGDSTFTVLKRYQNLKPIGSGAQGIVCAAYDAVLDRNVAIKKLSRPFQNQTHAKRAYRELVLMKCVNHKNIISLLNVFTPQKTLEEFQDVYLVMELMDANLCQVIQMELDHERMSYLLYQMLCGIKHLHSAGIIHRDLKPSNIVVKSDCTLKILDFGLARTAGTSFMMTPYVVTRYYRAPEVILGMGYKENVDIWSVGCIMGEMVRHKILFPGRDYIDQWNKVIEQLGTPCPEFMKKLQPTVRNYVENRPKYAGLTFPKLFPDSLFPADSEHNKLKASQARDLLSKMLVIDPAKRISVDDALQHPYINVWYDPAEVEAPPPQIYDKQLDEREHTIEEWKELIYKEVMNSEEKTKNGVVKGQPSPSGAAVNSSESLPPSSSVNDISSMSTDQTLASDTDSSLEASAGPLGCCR
Sequence of NEK1 (human) (Q96PY6 whole entry, looked up): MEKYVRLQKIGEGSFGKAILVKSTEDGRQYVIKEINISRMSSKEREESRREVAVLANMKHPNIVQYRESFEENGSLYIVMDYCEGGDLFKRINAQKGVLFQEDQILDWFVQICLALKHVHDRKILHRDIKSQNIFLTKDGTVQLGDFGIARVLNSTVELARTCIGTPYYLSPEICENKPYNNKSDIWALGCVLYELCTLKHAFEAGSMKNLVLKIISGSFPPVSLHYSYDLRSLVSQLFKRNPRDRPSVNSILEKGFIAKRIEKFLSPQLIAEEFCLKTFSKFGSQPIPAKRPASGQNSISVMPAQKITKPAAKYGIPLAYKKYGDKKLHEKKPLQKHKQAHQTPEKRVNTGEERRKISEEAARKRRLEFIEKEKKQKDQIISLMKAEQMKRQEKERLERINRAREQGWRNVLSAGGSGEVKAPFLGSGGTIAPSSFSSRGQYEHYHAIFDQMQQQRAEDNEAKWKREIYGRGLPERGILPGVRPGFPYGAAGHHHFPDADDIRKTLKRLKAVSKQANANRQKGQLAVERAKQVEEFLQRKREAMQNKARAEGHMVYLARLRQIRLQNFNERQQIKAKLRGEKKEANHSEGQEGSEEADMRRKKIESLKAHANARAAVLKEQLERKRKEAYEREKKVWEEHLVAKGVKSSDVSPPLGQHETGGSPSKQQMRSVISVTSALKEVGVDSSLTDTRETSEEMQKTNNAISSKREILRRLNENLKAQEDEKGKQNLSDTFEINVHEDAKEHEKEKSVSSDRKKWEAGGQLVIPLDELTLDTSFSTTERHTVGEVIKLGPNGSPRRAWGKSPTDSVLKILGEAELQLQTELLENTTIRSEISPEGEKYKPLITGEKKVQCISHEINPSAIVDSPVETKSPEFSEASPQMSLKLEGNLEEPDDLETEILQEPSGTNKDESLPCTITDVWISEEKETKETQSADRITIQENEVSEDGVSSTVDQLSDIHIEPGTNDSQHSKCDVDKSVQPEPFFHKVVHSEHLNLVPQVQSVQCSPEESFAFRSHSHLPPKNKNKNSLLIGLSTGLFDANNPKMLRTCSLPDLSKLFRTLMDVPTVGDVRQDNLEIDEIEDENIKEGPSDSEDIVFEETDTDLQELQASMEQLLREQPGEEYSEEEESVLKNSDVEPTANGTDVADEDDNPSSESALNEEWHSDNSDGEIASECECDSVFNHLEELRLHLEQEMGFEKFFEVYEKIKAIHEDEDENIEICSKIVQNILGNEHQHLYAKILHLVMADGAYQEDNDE
Sequence of CAMK2B (human) (Q13554 whole entry, looked up): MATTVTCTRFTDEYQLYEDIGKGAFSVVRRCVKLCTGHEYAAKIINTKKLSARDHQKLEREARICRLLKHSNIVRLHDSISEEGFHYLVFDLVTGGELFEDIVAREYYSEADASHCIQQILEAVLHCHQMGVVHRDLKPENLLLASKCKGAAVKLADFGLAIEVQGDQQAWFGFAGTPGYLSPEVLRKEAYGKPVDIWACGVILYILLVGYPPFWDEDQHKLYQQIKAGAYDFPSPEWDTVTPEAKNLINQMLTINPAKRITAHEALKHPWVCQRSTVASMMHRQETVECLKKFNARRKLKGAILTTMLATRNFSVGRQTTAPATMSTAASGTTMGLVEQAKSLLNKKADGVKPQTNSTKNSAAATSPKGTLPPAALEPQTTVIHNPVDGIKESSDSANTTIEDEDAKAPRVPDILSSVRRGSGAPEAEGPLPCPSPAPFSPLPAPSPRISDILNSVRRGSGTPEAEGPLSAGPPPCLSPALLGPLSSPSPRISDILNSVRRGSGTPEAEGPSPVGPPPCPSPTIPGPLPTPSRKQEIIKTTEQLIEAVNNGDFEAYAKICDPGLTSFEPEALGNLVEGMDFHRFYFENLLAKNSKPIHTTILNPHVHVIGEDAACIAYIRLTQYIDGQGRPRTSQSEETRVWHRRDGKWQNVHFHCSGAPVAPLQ
Sequence of MYLK2 (human) (Q9H1R3 whole entry, looked up): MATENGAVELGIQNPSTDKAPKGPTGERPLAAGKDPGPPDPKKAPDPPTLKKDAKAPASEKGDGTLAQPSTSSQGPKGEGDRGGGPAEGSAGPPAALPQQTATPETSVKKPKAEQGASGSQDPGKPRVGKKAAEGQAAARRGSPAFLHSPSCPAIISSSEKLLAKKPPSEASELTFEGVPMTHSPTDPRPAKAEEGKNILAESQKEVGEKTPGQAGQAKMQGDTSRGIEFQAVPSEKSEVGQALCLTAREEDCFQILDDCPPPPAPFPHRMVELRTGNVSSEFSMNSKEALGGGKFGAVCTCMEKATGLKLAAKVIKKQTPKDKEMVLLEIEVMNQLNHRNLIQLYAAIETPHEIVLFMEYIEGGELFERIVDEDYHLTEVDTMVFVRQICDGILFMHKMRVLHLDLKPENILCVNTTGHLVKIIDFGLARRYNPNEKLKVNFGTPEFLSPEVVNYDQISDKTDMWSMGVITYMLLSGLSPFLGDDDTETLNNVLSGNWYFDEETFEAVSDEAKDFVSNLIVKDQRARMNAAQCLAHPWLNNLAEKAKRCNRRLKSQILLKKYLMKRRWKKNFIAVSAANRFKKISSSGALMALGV
Sequence of TSSK1B (human) (Q9BXA7 whole entry, looked up): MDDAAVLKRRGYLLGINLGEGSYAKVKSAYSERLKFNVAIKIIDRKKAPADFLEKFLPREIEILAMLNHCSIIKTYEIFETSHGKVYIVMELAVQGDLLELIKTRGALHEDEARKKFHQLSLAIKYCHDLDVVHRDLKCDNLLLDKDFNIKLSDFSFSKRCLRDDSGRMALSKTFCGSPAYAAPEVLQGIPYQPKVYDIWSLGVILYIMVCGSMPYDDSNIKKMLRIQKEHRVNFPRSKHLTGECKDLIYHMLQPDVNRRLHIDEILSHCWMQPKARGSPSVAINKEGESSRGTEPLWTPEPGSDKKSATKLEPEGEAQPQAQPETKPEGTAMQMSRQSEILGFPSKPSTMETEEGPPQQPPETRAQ

On to `COc1cc(N2CCN(C)CC2)ccc1Nc1ncc2c(n1)Nc1ccccc1NC2=O`, for which the kinase still bound, per cent of control was found to be 93% in experiment [1]; 48% in experiment [2]; 2.4% in experiment [3]; 80% in [4]; 69% in experiment [5]; 100% in [6]. The kinase still bound, per cent of control worked out at 100% in experiment [7]; 95% in experiment [8]; 100% in experiment [9]; 87% in [10]; 100% in [11]; 63% in experiment [12]. Moreover, the kinase still bound, per cent of control in [13] is 82%; in experiment [14], 82%; in [15], 69%; in experiment [16] it was 100%; in experiment [17], 100%; in experiment [18], 97%. Further, the kinase still bound, per cent of control worked out at 64% in experiment [19]; 72% in experiment [20]; 66% in experiment [21]; 96% in [22]; 39% in experiment [23]; 100% in [24]. Also, the kinase still bound, per cent of control in [25] was found to be 15%; in experiment [26], 81%; in [27] it was 86%; in [28] it was 71%; in [29] it was 93%; in [30], 73%. For the same compound, the kinase still bound, per cent of control was 83% in experiment [31]; 100% in experiment [32]; 100% in [33]; 69% in experiment [34]; 100% in [35]; 82% in [36]. Also, the kinase still bound, per cent of control is 81% in experiment [37]; 100% in [38]; 58% in experiment [39]; 98% in [40]; 91% in experiment [41]; 9.5% in experiment [42].
On to `N=C1NC(=O)/C(=C/c2ccc(-c3ccc(C(N)=O)cc3O)o2)S1`, for which the kinase still bound, per cent of control in experiment [1] was determined as 28%; in [10] it was 27%.
With `N=C1NC(=O)/C(=C/c2ccc(-c3csc4ccccc34)o2)S1`, the kinase still bound, per cent of control in experiment [12] was 31%; in experiment [35], 20%; in experiment [37], 33%.
With `CN1C(=O)[C@H]2CCC[C@H]2N(C2CCCC2)c2nc(Nc3ccc(C(N)=O)cc3)ncc21`, the kinase still bound, per cent of control in [5] was found to be 15%; in experiment [11], 9%; in [14], 4.5%; in experiment [21], 19%; in experiment [24], 16%; in experiment [29], 30%. This compound also displayed a kinase still bound, per cent of control in [31] of 4.7%.
In the case of `CS(=O)(=O)Nc1ccc(-c2cncc(/C=C3\SC(=N)NC3=O)c2)cc1`, the kinase still bound, per cent of control was found to be 30% in experiment [6]; 26% in [16]; 24% in experiment [24]; 3.6% in [26]; 24% in experiment [36].
Consider `N=C1NC(=O)/C(=C/c2ccc(-c3ccc(F)cc3O)o2)S1`, for which, in [10], the kinase still bound, per cent of control was determined as 12%.
Consider `Nc1cccc(-c2cc(/C=C3\SC(=O)NC3=O)c[nH]c2=O)c1`, for which the kinase still bound, per cent of control in experiment [18] was found to be 29%; in experiment [21], 14%; in experiment [23], 30%; in experiment [34], 14%.
For the compound `O=C1NC(=S)S/C1=C\c1ccc(-c2cncc3ccccc23)o1`, the kinase still bound, per cent of control in experiment [8] amounted to 31%; in experiment [30], 28%; in experiment [32], 26%; in experiment [39] it was 12%; in experiment [40], 22%; in experiment [41], 28%.
As to `CSC1=NC(=O)/C(=C/c2c[nH]c(=O)c(-c3ccc(NS(C)(=O)=O)cc3)c2)S1`, in [28], the kinase still bound, per cent of control worked out at 32%.
As to `N=C1NC(=O)/C(=C/c2ccc(-c3cncc4ccccc34)o2)S1`, the kinase still bound, per cent of control in [4] came to 23%; in experiment [5] it was 12%; in experiment [8], 33%; in [13], 28%; in [17], 12%; in [31] it was 16%. In addition, the kinase still bound, per cent of control in experiment [32] amounted to 23%; in experiment [36] it was 27%; in [39], 3%; in [40], 17%; in experiment [41], 6.6%.
In the case of `CS(=O)(=O)Nc1ccc(-c2ncc(/C=C3\SC(=N)NC3=O)s2)cc1`, the figures for the kinase still bound, per cent of control in [16] and in [25] were 6.8% and 26%, respectively.
With `N=C1NC(=O)/C(=C/c2c[nH]c(=O)c(-c3ccc(N4CCNCC4)nc3)c2)S1`, the kinase still bound, per cent of control in [19] was determined as 9.8%; in experiment [28], 26%.
